For the assay, the target named is NADPH oxidase 1 (Homo sapiens) (UniProt Q9Y5S8). The assay is described as follows: potency of NOX1 inhibition in cells – cell-based, luminescence, cherry picks 2, dose response (AID 434997). Particulars: NOX1-expressing cells, ROS luminescence.

For 1 compound, IC50 results are on record in PubChem BioAssay AID434997 (The Scripps Research Institute Molecular Screening Center, 2010).

Sequence of NADPH oxidase 1 (Homo sapiens) (Q9Y5S8 whole entry, looked up): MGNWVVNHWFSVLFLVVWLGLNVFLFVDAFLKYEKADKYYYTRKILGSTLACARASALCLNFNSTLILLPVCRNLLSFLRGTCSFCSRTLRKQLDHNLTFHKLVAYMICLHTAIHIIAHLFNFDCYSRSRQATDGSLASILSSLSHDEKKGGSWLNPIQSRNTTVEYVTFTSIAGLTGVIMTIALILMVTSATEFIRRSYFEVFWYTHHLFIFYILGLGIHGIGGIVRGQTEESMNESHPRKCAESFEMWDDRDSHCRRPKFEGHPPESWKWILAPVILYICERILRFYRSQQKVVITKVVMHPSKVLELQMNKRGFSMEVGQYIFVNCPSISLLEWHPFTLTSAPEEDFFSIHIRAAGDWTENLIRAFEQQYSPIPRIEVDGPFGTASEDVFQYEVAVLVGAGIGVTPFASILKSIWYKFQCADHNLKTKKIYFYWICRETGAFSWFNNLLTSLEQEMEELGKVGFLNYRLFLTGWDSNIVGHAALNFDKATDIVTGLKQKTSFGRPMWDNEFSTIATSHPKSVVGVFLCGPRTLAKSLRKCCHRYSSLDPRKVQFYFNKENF

Usually IC50 stands for the midpoint of a concentration-inhibition curve. On to `FC(F)(F)c1ccc2c(c1)Nc1ccccc1S2`, for which the IC50 was 320 nM.
